These results are taken from PMC3620930 (Molecular oral microbiology, 2012).

Among the targets are Lys-gingipain (Porphyromonas gingivalis, UniProt P72197); HRgpA (Porphyromonas gingivalis, UniProt P28784); RgpB (Porphyromonas gingivalis, UniProt P95493).
Experiment in all cases: inhibition of amidolytic activity
Assay type in all cases: biochemical

Take `N=C(N)c1ccc(CC2CCCC(Cc3ccc(C(=N)N)cc3)C2=O)cc1` (stereo not drawn) [2,6-bis-(4-amidinobenzyl)-cyclohexanone]: the results for the Ki on Lys-gingipain, at HRgpA and on RgpB were > 1000 µM, 2.9 µM and 0.51 µM, respectively.

As to `N=C(N)c1ccccc1` [benzamidine], the inhibition constant Ki – broadly, the dissociation constant of the complex between target and ligand, obtained from inhibition or displacement – at Lys-gingipain was > 1000 µM; on HRgpA it was 536 µM; at RgpB, 277 µM.

On to `N=C(N)c1ccc(OCCCCCOc2ccc(C(=N)N)cc2)cc1` [pentamidine], for which the Ki at Lys-gingipain was > 1000 µM; on HRgpA, 107 µM; at RgpB it was 40.3 µM.
